Measurements taken from patent US20120309763A1, “ANTIFUNGAL COMPOSITION INTENDED TO BE APPLIED TO A PERFORATED NAIL” (priority 2009, published 2012).

What was measured:
[1] = Diffusion of terbinafine HCl through the layers of the nail, Franz cells (Example 10): intermediate layer
Experimental: For each formulation, 2 nails (1 with the dorsal layer and 1 without the dorsal layer) are used per donor. The treatment time is 5 days with a new application of each formula every day. The amount of formula deposited daily on the surface of the nail is 10 μl/cm2.
For each donor, the thickness of the nails is measured. Then, for each donor, the nails are prepared in the following manner:
4 nails without dorsal layer: for the nails from this group, the dorsal face is removed using a miniature sander in order to reach the intermediate layer by removing 40% of the initial thickness of the nail,
The Franz type diffusion cells used are placed in a thermostatically-controlled bath in order to obtain a temperature of 32±1° C. at the surface of the nail. The nails are placed in the diffusion cell with the ventral side towards the receiving compartment, phosphate buffer (pH 7.4±0.1) containing 0.1% of Volpo (Oleth-20). During the experiment, the diffusion cells are placed in a thermostatically-controlled bath in order to obtain a temperature of 32±1° C. This temperature is checked before each withdrawal. […]
The samples, receiving liquids and nail extracts are then analysed by MS/MS. […]
The procedures of the study and also the amounts of terbinafine HCl in the various layers of the nail, dorsal and intermediate, were carried out and analysed according to the same protocol as before.

[2] = Diffusion of terbinafine HCl through the layers of the nail, Franz cells (Example 10): dorsal layer; type: in vitro ADME; details: 5 days
Source text: This temperature is checked before each withdrawal.

Row | SMILES | factor of better diffusion in the intermediate layer relative to the dorsal layer ([1]; composition with amphoteric agent) | increase of the penetration of terbinafine through the dorsal layer by the presence of the amphoteric agent (×) ([2]; 10% solution with vs without amphoteric agent) | factor of reduction of the amount of terbinafine HCl in the nail by the presence of the amphoteric agent ([2]; Lamisil Spray 1% with vs without amphoteric agent, dorsal layer) | factor of reduction of the amount of terbinafine HCl in the nail by the presence of the amphoteric agent ([1]; Lamisil Spray 1% with vs without amphoteric agent, intermediate layer, 5 days)
1 | CN(C/C=C/C#CC(C)(C)C)Cc1cccc2ccccc12.Cl [terbinafine HCl, terbinafine hydrochloride, reference compound] | 3 |  |  | 
2 | CCCCCCCCCCCC[N+](C)(C)CC(=O)[O-] [amphoteric agent, Lauryl Dimethylaminoacetic Acid Betaine] |  | 3 | 3 | 3
